Measurements: publication PMC5706701, “Development of a homogenous high-throughput assay for inositol hexakisphosphate kinase 1 activity” (PLoS ONE, 2017)
Structures can show the parent of a compound that is named as a salt.

Molecular target: T1, Human IP6K1 (Homo sapiens, UniProt Q92551)
T1 construct: GST (N, cleaved yes); made in house; host or cells: C43 E. coli, pGEX-6P-2
Test: IP6K1 high-throughput screen of the Sigma LOPAC (ADP-Glo Max, single point);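 note: final compound concentration 10µM in 5% DMSO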
Format: biochemical

[1] = LOPAC single-point screen, ADP-Glo Max luminescence raw signal per well
[2] = LOPAC single-point screen, Z-score relative to plate average and StDev
[3] = Sigma LOPAC single-point screen, ADP-Glo Max raw signal per well
[4] = Sigma LOPAC single-point screen, Z-score from plate average and StDev
[5] = LOPAC single-point screen, Z-score from plate average and StDev
[6] = LOPAC single-point screen, ADP-Glo Max raw signal per well
[7] = LOPAC single-point screen, Z-score from raw signal with plate average and StDev
[8] = LOPAC single-point screen, Z-score against plate average and StDev

T1 sequence (Q92551 whole entry): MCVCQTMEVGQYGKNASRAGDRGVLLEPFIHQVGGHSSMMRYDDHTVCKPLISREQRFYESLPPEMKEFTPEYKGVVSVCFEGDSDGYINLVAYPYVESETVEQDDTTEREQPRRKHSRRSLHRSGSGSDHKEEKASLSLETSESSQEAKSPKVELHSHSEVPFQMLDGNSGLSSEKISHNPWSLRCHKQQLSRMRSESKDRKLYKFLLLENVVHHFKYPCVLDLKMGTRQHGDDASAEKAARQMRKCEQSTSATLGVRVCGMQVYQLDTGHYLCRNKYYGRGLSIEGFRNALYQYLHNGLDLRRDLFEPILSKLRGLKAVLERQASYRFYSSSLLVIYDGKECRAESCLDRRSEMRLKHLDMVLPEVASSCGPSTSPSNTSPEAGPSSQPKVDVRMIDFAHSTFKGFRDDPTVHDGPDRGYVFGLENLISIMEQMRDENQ

Row | Compound | Raw Signal [3] | Z-score [4] | Raw Signal [6] | Z-score [8] | also measured
1 | Nc1ncnc2c1nc(Sc1ccc(Cl)cc1)n2C1OC2COP(=O)(O)OC2C1O (stereo in doubt) [8-(4-Chlorophenylthio)-cAMP sodium] | – | – | – | – | Raw Signal [1]: 54805; Z-score [2]: -0.5474
2 | S=C=Nc1cccc(C2(N3CCCCC3)CCCCC2)c1 [Metaphit methanesulfonate] | 56894 | 0.4201 | – | – | –
3 | CC(N)(Cc1ccc(O)c(O)c1)C(=O)O (racemic) | – | – | – | – | Raw Signal [1]: 41540; Z-score [2]: -2.16
4 | Cn1c(=O)c2[nH]c(C3CCCC3)nc2n(C)c1=O [8-Cyclopentyl-1,3-dimethylxanthine] | 58283 | 0.6328 | – | – | –
5 | CC1=NN=C(c2ccc(N)cc2)c2cc3c(cc2C1)OCO3.Cl [GYKI 52466 hydrochloride] | – | – | – | – | Raw Signal [1]: 61943; Z-score [5]: 1.376
6 | CC[C@H]1CN2CCc3cc(OC)c(OC)cc3[C@@H]2C[C@@H]1C[C@H]1NCCc2cc(OC)c(OC)cc21 [Emetine dihydrochloride hydrate] | – | – | 52998 | – | Z-score [7]: -0.4405
7 | CCCCCC(O)c1cccc(OCc2ccc3ccccc3n2)c1 (centres unmarked) [REV 5901] | 62376 | 1.234 | – | – | –
8 | CSc1nc(N)c2ncn([C@@H]3O[C@H](COP(=O)([O-])OP(=O)([O-])OP(=O)([O-])[O-])[C@@H](O)[C@H]3O)c2n1.[Na+].[Na+].[Na+].[Na+] | – | – | 58230 | 0.05581 | –
9 | N=C(N)c1ccc(OCCCCCOc2ccc(C(=N)N)cc2)cc1 [Pentamidine isethionate] | – | – | 54696 | 0.05083 | –
10 | N=C1Sc2ccccc2C2=NCCCN12 [PD 404,182] | – | – | 56268 | 0.315 | –
11 | O=C1c2c(O)cc(O)cc2OC(c2ccc(O)c(O)c2)C1O (racemic) [(±)-Taxifolin] | 61241 | 1.0136 | – | – | –
12 | CN[C@@H]1C[C@@H](c2ccc(Cl)c(Cl)c2)c2ccccc21 [Indatraline hydrochloride] | – | – | 53926 | -0.07855 | –
13 | CCOC(=O)c1ncn2c1CN(C)C(=O)c1cc(F)ccc1-2 [Flumazenil] | – | – | – | – | Raw Signal [1]: 52634; Z-score [2]: -0.5144
14 | CC(=O)O[C@]1(C(C)=O)CC[C@H]2[C@@H]3C=C(Cl)C4=CC(=O)[C@@H]5C[C@@H]5[C@]4(C)[C@H]3CC[C@@]21C [Cyproterone acetate] | 63165 | 0.925 | – | – | –
15 | S=C(NC1CCCCC1)N1CCC(c2cnc[nH]2)CC1 [Thioperamide maleate] | – | – | 54981 | – | Z-score [7]: -0.2026
16 | Nc1ncnc2c1ncn2[C@@H]1O[C@H](COP(=O)(O)OP(=O)(O)OP(=O)(O)OP(=O)(O)OC[C@H]2O[C@@H](n3cnc4c(N)ncnc43)[C@H](O)[C@@H]2O)[C@@H](O)[C@H]1O | – | – | 55437 | 0.05483 | –
17 | C[N+](C)(C)CCOC(N)=O [Carbachol] | 62361 | 0.7834 | – | – | –

Row | Compound | Raw Signal [3] | Z-score [4] | Raw Signal [6] | Z-score [8] | also measured
18 | Br.COc1ccccc1N1CCN(CCCCN2C(=O)c3ccccc3C2=O)CC1 [NAN-190 hydrobromide] | 61226 | 1.148 | – | – | –
19 | NS 521 oxalate | – | – | 56111 | 0.2886 | –
20 | C[C@@]12N[C@@H](Cc3ccccc31)c1ccccc12.O=C(O)/C=C\C(=O)O [(-)-MK-801 hydrogen maleate] | 58481 | 0.6868 | – | – | –
21 | COc1ccc2[nH]c3c(c2c1)CCNC3 | – | – | – | – | Raw Signal [1]: 69821; Z-score [5]: 2.097
22 | CCCNC(C)C(=O)Nc1ccccc1C (centres unmarked) [Prilocaine hydrochloride] | – | – | 55610 | -0.08039 | –
23 | Cl.O=C(O)Cc1c[nH]cn1 [Imidazole-4-acetic acid hydrochloride] | – | – | 55616 | 0.09118 | –
24 | S=C(Nc1ccccc1)Nc1nccs1 [1-Phenyl-3-(2-thiazolyl)-2-thiourea] | – | – | 53752 | – | Z-score [7]: -0.1078
25 | O=[N+]([O-])c1cc2nc(O)c(O)nc2cc1[N+](=O)[O-] [DNQX] | – | – | – | – | Raw Signal [1]: 50774; Z-score [2]: -0.8922
26 | JL-18 | – | – | – | – | Raw Signal [1]: 64215; Z-score [5]: 1.65
27 | CN1C(=O)CC[C@H]1c1cccnc1 [(-)-Cotinine] | – | – | – | – | Z-score [2]: -0.59
28 | O=C(CCNNC(=O)c1ccncc1)NCc1ccccc1 [Nialamide] | – | – | 52793 | – | Z-score [7]: -0.2689
29 | CC1CCN(CC[C@H]2CCCN2S(=O)(=O)c2cccc(O)c2)CC1.Cl [SB 269970 hydrochloride] | – | – | 57058 | 0.2009 | –
30 | CNCCC(Oc1ccc(C(F)(F)F)cc1)c1ccccc1 (centres unmarked) [Fluoxetine hydrochloride] | 60043 | 0.9903 | – | – | –
31 | COc1ccc(CCN)cc1O.Cl | – | – | 55159 | -0.001632 | –
32 | CCCCC#Cc1nc(N)c2ncn([C@@H]3O[C@H](C(=O)NCC)[C@@H](O)[C@H]3O)c2n1 [HE-NECA] | 57534 | 0.4807 | – | – | –
33 | O=[N+]([O-])c1cccc2cn[nH]c12 [7-Nitroindazole] | – | – | 55532 | 0.1913 | –
